Measured values from patent publication US20210322545A1 (priority 2016, published 2021).

Test system: cancer cell lines
Format: cell-based

Substance	synergy with SMC using recombinant cytokines
IFNγ	recapitulated
IFNα	recapitulated
